Read-outs that look alike come from different tables or passages of the source.
What was measured:
[1] = test system: DU 145 Human Prostate Carcinoma Xenografts; conditions: DU145, i.v. qd x 1 (mg/kg: Taxol 24, 1351 107.6, 1393 72.6, 1401 107.6, 1418 107.6, 1424 195.1)
Procedure: (§1) Other antitumor compounds were similarly formulated. […] The dosing volume was 0.3 ml per 20 g mouse.
Male NCr-nude mice (implanted subcutaneously with 1 mm^3 DU145 prostate carcinoma fragments in the flank) were sorted into treatment groups of five mice each. […] Dosing was initiated on Day 1. The antitumor compounds were given i.v. at an estimated maximum tolerated dose (MTD) appropriate for each agent on a qd x 1 schedule (single administration of compound). […] The vehicle was administered i.v. to control mice in Group 1 on the qd x 1 schedule. The study was terminated on Day 91. Treatment groups are detailed in Table 5.
(§2) The mean days of survival is the number of days after which a neoplasm reached a size of 1.5 g and the animal was euthanized. A complete response is obtained if the tumor is not palpable at the end of the study. A partial response is obtained if the tumor shrinks to a size smaller than its size on Day 1 of the study. […]

[2] = test system: A375 Human Melanoma Xenografts; conditions: A375, i.v. qd x 1 (mg/kg: Taxol 24, 1351 107.6, 1393 72.6, 1401 107.6, 1418 107.6, 1424 195.1, Taxotere 70)
Procedure: as §1
Female NCr-nude mice (implanted subcutaneously with 1 mm^3 A375 melanoma in the flank) were sorted into treatment groups of six mice each, except for the Taxotere group having seven mice each. […] Dosing was initiated on Day 1. The antitumor compounds were given i.v. at an estimated maximum tolerated dose (MTD) appropriate for each agent on a qd x 1 schedule (single administration of compound). […] Taxotere was given i.v. on a qd x 1 schedule at a dose of 70 mg/kg. The vehicle was administered i.v. to control mice in Group 1 on the qd x 1 schedule. Treatment groups are detailed in Table 9. The study was terminated on Day 60.
as §2, with “The results are summarized in Table 10 and include mean days of survival (MDS), number of toxic deaths, number of survivors, number of complete or partial responses, and number with stable disease. The” for “The”, “tumor” for “neoplasm”, “2.0” for “1.5”

[3] = test system: Panc-1 Human Pancreatic Carcinoma Xenografts; conditions: i.v. qd x 1 at estimated MTD; 6 mice/group; study end Day 63
Procedure: (§3) Other antitumor compounds were similarly formulated. […] The dosing volume was 0.3 mL per 20 g mouse.
Female NCr-nude mice (6-8 weeks of age, implanted subcutaneously with 1 mm^3 Panc-1 pancreatic carcinoma fragments in the flank) were sorted into treatment groups of six mice each. […] Dosing was initiated on Day 1. The antitumor compounds were given i.v. at an estimated maximum tolerated dose (MTD) appropriate for each agent on a qd x 1 schedule (single administration of compound). […] Taxotere was given i.v. at a dose of 70 mg/kg on a qd x 1 schedule. The vehicle was given i.v. to control mice in Group 1 in each test on Day 1 (qd x 1) schedule. Treatment groups are detailed in Table 12. The study was terminated on Day 63.
The mean days of survival is the number of days after which a neoplasm reached a size of 1.5 g and the animal was euthanized. A complete response is obtained if the tumor is not palpable at the end of the study. A partial response is obtained if the tumor shrinks to a size smaller than its size on Day 1 of the study.

[4] = test system: VM46 Human Colon Carcinoma Xenografts; conditions: 6 mice/group
Procedure: as §3
Female NCr-nude mice (6-8 weeks of age, implanted subcutaneously with 1 mm^3 VM46 colon carcinoma fragments in the flank) were sorted into treatment groups of six mice each. […] Dosing was initiated on Day 1. The antitumor compounds were given i.v. at an estimated maximum tolerated dose (MTD) appropriate for each agent on a qd x 1 schedule (single administration of compound). […] Taxotere was given i.v. at a dose of 70 mg/kg on a qd x 1 schedule. The vehicle was given i.v. to control mice in Group 1 in each test on Day 1 (qd x 1) schedule. Treatment groups are detailed in Table 13. The VM46 study ended on Day 64.
as §2, with “The results are summarized in table 14 and include mean days of survival (MDS), number of toxic deaths, number of survivors, number of complete or partial responses, and number with stable disease. The” for “The”

[5] = test system: HCT116; experiment: In Vitro cytotoxicity measured by the cell colony formation assay; type: cell-based; conditions: Homo sapiens, HCT-116; 72 h drug incubation, colonies counted after 7 days; concentration producing 50% inhibition of colony formation; read-out: IN VITRO ID 50 (nm) HCT116
Procedure: In Vitro cytotoxicity measured by the cell colony formation assay
Four hundred cells (HCT116) were plated in 60 mm Petri dishes containing 2.7 mL of medium (modified McCoy's 5a medium containing 10% fetal bovine serum and 100 units/mL penicillin and […] streptomycin). The cells were incubated in a CO2 incubator at 37 °C for 5 h for attachment to the bottom of Petri dishes. The compounds identified in Example 2 were made up fresh in medium at ten times the final concentration, and then 0.3 mL of this stock solution was added to the 2.7 mL of medium in the dish. The cells were then incubated with drugs for 72 h at 37 ° C. At the end of incubation the drug-containing media were decanted, the dishes were rinsed with 4 mL of Hank's Balance Salt Solution (HBSS), 5 mL of fresh medium was added, and the dishes were returned to the incubator for colony formation. The cell colonies were counted using a colony counter after incubation for 7 days. Cell survival was calculated and the values of ID50 (the drug concentration producing 50% inhibition of colony formation) were determined for each tested compound.

[6] = test system: MX-1 Human Breast Carcinoma Xenograft; experiment: In vivo evaluation of oral administration of antitumor compounds against MX-1 human breast carcinoma xenograft (Example 25); conditions: for Maximum Weight Loss (Day) / Partial Response / Stable Disease / Toxic Deaths / Mean Day of Survival (n): 6 mice/group; for Maximum Weight Loss (Day): on Day 5; for Partial Response / Stable Disease / Toxic Deaths / Mean Day of Survival (n): study end Day 63; for Mean Day of Survival (n): days until tumor reached 1.5 g; for survival compared to vehicle control mice: MX-1, single oral bolus, doses of Table 22, Day 63; for Complete Response: po, 1512 h
Description: This study investigated the efficacy of various antitumor compounds when administered orally against the MX-1 human breast carcinoma xenograft.
(§4) The study was terminated on Day 63.

[7] = test system: blood cell populations; experiment: Effect of oral treatment on blood cell populations, body weight and tumor weight in MX-1 bearing mice (Example 25, Table 23); type: in vivo, nu/nu mice; conditions: for Weight: tumor weight at Day 18
Procedure: as §4
In addition to survival and tumor regression responses, the effect of treatment on blood cell populations was assessed. The major effect of these antitumor compounds on blood cell populations was a marked reduction in the neutrophil cell number. As well, monocyte depletion correlated fairly well with neutrophil reduction for each antitumor compound. […] There was a correlation between antitumor activity and reduced neutrophil count. In general, toxicity (as determined by neutrophil depletion) and weight loss correlated with efficacy. Importantly, the toxicities observed with the very efficacious antitumor compounds were manageable and reversible; neutrophil count and body weight rebounded from their low points in just a few days. Table 23 summarizes the weight reduction, neutrophil and monocyte measurements on Day 4, with tumor weight reduction calculated at Day 18: Table 23

[8] = tumor score 1 to 10, group mean
[9] = 195.1 mg/kg i.v. qd x 1, study end Day 64
[10] = Day 4, 233 mg/kg single oral bolus
[11] = Day 4, 160 mg/kg single oral bolus

CCC(=O)O[C@H]1C[C@H]2OC[C@@]2(OC(C)=O)[C@H]2[C@H](OC(=O)c3ccccc3)[C@]3(O)C[C@H](OC(=O)[C@H](O)[C@@H](NC(=O)OC(C)(C)C)c4ccsc4)C(C)=C([C@@H](O)C(=O)[C@]12C)C3(C)C [Compound 1424]
MDS (n) ([1]; 5 mice/group, 1.5 g cut-off, Day 91): 76.0 ± 5.4 (4) days
Complete Response ([1]; 5 mice/group, Day 91): 0
Partial Response ([1]; 5 mice/group, Day 91): 1
Stable Disease ([1]; 5 mice/group, Day 91): 0
Survivors ([1]; 5 mice/group, Day 91): 1
Toxic Deaths ([1]; 5 mice/group, Day 91): 0
Mean Score [1, 8]: 3.6 ± 1.1
MDS (n) ([2]; 2.0 g cut-off, Day 60): 30.7 ± 1.1 (2) days
Complete Response ([2]; Day 60): 0
Partial Response ([2]; Day 60): 0
Stable Disease ([2]; Day 60): 0
Survivors ([2]; Day 60): 0
Mean Score [2, 8]: 1 ± 0.6
Complete Response [3]: 0
Mean Score [3]: 0 ± 0
Partial Response [3]: 0
Stable Disease [3]: 0
Survivors [3]: 0
Toxic Deaths [3]: 6
Complete Response [4, 9]: 0
Mean Score [4, 9]: 0.8 ± 0.4
Partial Response [4, 9]: 0
Stable Disease [4, 9]: 0
Survivors [4, 9]: 0
Toxic Deaths [4, 9]: 3
MDS (n) ([4]; 195.1 mg/kg i.v. qd x 1, study end Day 64, days until tumor reached 1.5 g): 45.4 ± 8.1 (3) days
Toxic Deaths ([4]; VM46, i.v. qd x 1 at estimated MTD): three

CCC(=O)O[C@H]1C[C@H]2OC[C@@]2(OC(C)=O)[C@H]2[C@H](OC(=O)c3ccccc3)[C@]3(O)C[C@H](OC(=O)[C@H](O)[C@@H](NC(=O)OC(C)(C)C)c4ccccc4)C(C)=C([C@@H](O)C(=O)[C@]12C)C3(C)C [Compound 1458]
IC50 [5]: < 10 nM
Maximum Weight Loss (Day) ([6]; 233 mg/kg single oral bolus): -5.8% (5)
Partial Response ([6]; 233 mg/kg single oral bolus): 0
Stable Disease ([6]; 233 mg/kg single oral bolus): 0
Toxic Deaths ([6]; 233 mg/kg single oral bolus): 0
Mean Day of Survival (n) ([6]; 233 mg/kg single oral bolus): 46.0 ± 1.6 (5) days
survival compared to vehicle control mice [6]: significant survival extensions
Complete Response ([6]; 233 mg/kg): 1
Monocytes (K/µL) [7, 10]: 0.057 K/µL
Neutrophils (K/µL) [7, 10]: 0.232 K/µL
% Reduction ([7]; reduction of monocytes, Day 4, 233 mg/kg single oral bolus): 40.6%
% Reduction ([7]; reduction of neutrophils, Day 4, 233 mg/kg single oral bolus): 74.5%
% Reduction ([7]; reduction of tumor weight at Day 18, 233 mg/kg single oral bolus): 97.5%
Weight ([7]; 233 mg/kg single oral bolus): 21.8 mg

CCC(=O)OC1CC2OCC2(OC(C)=O)C2C(OC(=O)c3ccccc3)C3(O)CC(OC(=O)C(O)C(NC(=O)c4ccccc4)c4ccco4)C(C)=C(C(O)C(=O)C12C)C3(C)C (stereo not drawn) [Compound 4017]
IC50 [5]: < 10 nM
Maximum Weight Loss (Day) ([6]; 160 mg/kg single oral bolus): -4.3% (5)
Partial Response ([6]; 160 mg/kg single oral bolus): 0
Stable Disease ([6]; 160 mg/kg single oral bolus): 0
Toxic Deaths ([6]; 160 mg/kg single oral bolus): 1
Mean Day of Survival (n) ([6]; 160 mg/kg single oral bolus): 39.4 ± 4.6 (5) days
survival compared to vehicle control mice [6]: significant survival extensions
Complete Response ([6]; 160 mg/kg): 0
Monocytes (K/µL) [7, 11]: 0.073 K/µL
Neutrophils (K/µL) [7, 11]: 0.228 K/µL
% Reduction ([7]; reduction of monocytes, Day 4, 160 mg/kg single oral bolus): 24.0%
% Reduction ([7]; reduction of neutrophils, Day 4, 160 mg/kg single oral bolus): 75.0%
% Reduction ([7]; reduction of tumor weight at Day 18, 160 mg/kg single oral bolus): 70.5%
Weight ([7]; 160 mg/kg single oral bolus): 256.5 mg

CCC(=O)O[C@H]1C[C@H]2OC[C@@]2(OC(C)=O)[C@H]2[C@H](OC(=O)c3ccccc3)[C@]3(O)C[C@H](OC(=O)[C@H](O)[C@@H](NC(=O)OC(C)(C)C)c4nccs4)C(C)=C([C@@H](O)C(=O)[C@]12C)C3(C)C [Compound 6363]
IC50 [5]: < 10 nM

C/C=C/C(=O)O[C@H]1C[C@H]2OC[C@@]2(OC(C)=O)[C@H]2[C@H](OC(=O)c3ccccc3)[C@]3(O)C[C@H](OC(=O)[C@H](O)[C@@H](NC(=O)OC(C)(C)C)c4cccs4)C(C)=C([C@@H](O)C(=O)[C@]12C)C3(C)C [Compound 6686]
IC50 [5]: < 1 nM

Reference: patent EP1285918A1, “C7 Ester substituted taxanes as antitumor agents” (Florida State University Research Foundation, Inc., priority 2001, dated 2003)
